Tests used:
COX-2 = conditions: Animals I; controls set to 100; mean (range); α-AED 10 mg 96 hours, β-AED 80 mg 456 hours, α+β sequential
Procedure: (§1) The animal experiment described above was repeated.
(§2) Thawed rat tumours from both experiments above were homogenized in ice cold lysis-buffer. (160 mM NaCl, 10 mM HEPES, 2 mM CaCl2, 5% SDS, 0.5% Triton X-100, 100 μg/ml phenyl-metylsulfonyl fluoride, 1 μg/ml leupeptin and 2 μg/ml aprotinin), placed on ice for 15 minutes and following clarification centrifuged for 10 minutes at 13,000 g. Protein content of homogenates were determined by Lowry assay.
(§3) Protein in lysates (90 μg) were separated by electrophoresis using 8% SDS-PAGE and separated proteins were transferred onto a nitrocellulose membrane (Amersham) in trans-blot electrophoretic transfer cell (Bio-Rad Laboratories).
(§4) After washing in TTBS the blots were reincubated with horseradish peroxidase conjugated secondary antibody (anti-goat antibodies 2020, Santa Cruz) diluted 1:4000 in TTBS containing 3% (w/v) non-fat, dried milk for one hour. Blots were developed using an enhanced chemiluminescence system (ECL, Amersham) and exposed to Hyperfilm ECL (Amersham). Optical density was measured densitometrically.
The blots were striped and rehybridized with antibodies against β-catenin (C-18, sc. 1496) and COX-2 (C-20, sc 1745) antibodies.
In the second animal experiment tumours were investigated for expression of β-catenin, COX-2 and cyclin D1 (A-12, sc. 8396).

VEGF = test: Immunostaining of tumour sections against VEGF; assay type: in vivo, rat
Procedure: Working dilution 1:100. As negative control antibody a mouse IgG, clone DAK-GO1, kappa, ×931, Dako, was used with a working dilution of 1:50.
as §1
(§5) Group 1 received a single dose of 10 mg 17α-AED sc. near tumour.
(§6) Group 2 received a single dose of 80 mg 17β-AED in the same way.
(§7) Group 3 received a single dose of 25 mg 17α OH-pregnenolone in the same way.
(§8) Group 4 received a single dose of 7.5 mg 5-androstene-3β,7β,17α-triol.

PPARγ = conditions: Animals I; controls set to 100; mean (range); α-AED 10 mg 96 hours, β-AED 80 mg 456 hours, α+β sequential
Procedure: as §2, §3, §4
All experiments were repeated twice in separate assays.

DU-145 [1] = test: Caspase apoptosis assay (Ac-DEVD-AMC fluorescence); assay type: cell-based, human; conditions: 96 hours; for Mean fluorescence DU-145 samples/100 cells n = 3 / Mean fluorescence DU-145 samples n = 3: 100 nM, mean (range); for Mean fluorescence DU-145 samples/100 cells n = 3: corrected for cell number
Procedure: (§9) Exposure was maintained for 96 hours and cells in culture flasks were then treated with 5 ml of trypsin (0.25%) for PC-3 and trypsin and 3 ml of Versene (0.2 mM) for DU-145. Cells were then mechanically loosened, using a glass spatula. 100 μL aliquots were removed for Trypan blue exclusion trial. 200 μL aliquots were removed for cytospin preparations. The remaining 700 μL samples were then centrifuged for 5 minutes at 510×g at 4° C. Supernatant was removed and cells were resuspended in medium in 1 ml of insect cell lysis buffer (Pharmingen # 21425A) and incubated for 30 minutes on ice. The cell lysates were then stored at −70° C. until analysis.
(§10) Aliquots of a 100 μL of cell lysate were removed for the caspase assay. Each portion was mixed with 1 ml protease assay buffer and Ac-DEVD-AMC substrate (Pharmingen # 66081U) with a final concentration of 20 μM. Solutions were incubated for 60 minutes at 37° C.
(§11) To determine background fluorescence a control was prepared, containing no cell lysate but the same amounts of protease assay buffer, lysis buffer and Ac-DEVD-AMC substrate.
(§12) Fluorescence was measured using a spectrofluorometer (RF 540, Shimadzu Data Recorder DR3, Instrument AB, Lambda) at 415-450 nm with an excitation wavelength of 380 nm.

cyclin D1 = test: Western blotting of Dunning AT-1 rat prostate tumours; assay type: in vivo; conditions: Animals II; exposure 80 hours in all arms
Procedure: as §1, §5, §6, §7, §8
Protein content of homogenates were determined by Lowry assay.

[2] = test system: Dunning R 3327, AT-1, rat prostatic tumour; test: Tumour growth after s.c. injection near tumour; assay type: in vivo; conditions: for tumour volumes: Animals II, single s.c. injection in the proximity of the tumour
Procedure: as §1, §5, §6, §7, §8
A fifth group served as tumour bearing controls.

DU-145 [3] = test: Trypan blue exclusion trial, number of viable and dead cells; assay type: cell-based, human; conditions: 96 hours; for DU-145 mean % viable / DU-145 mean Dead cells / DU-145 mean Tot. cells / DU-145 mean Viable cells: 100 nM; for DU-145 mean Dead cells / DU-145 mean Tot. cells / DU-145 mean Viable cells: mean (range)
Procedure: (§13) Human prostatic cancer cell lines, PC-3 and DU-145, were used. Frozen cell lines were established in culture. DU-145, which was received as a tumour piece, was first disintegrated in a sterile Petri dish, using a pair of scissors. The disintegrated tumour was transferred to a […] cell-culture flask containing medium. For medium, Ham's F 10 was used for PC-3 and RPMI 1640 for DU-145.
(§14) FBS 10%, 0.2% NaHCO3 (7.5%), 2 mM L-glutamine (200 mM) and 0.005 mg/ml gentamycin (5 mg/ml) were added to culturing media for both cell lines.
(§15) Cells were grown in […] cell culture flasks until nearly confluent and culture medium was changed twice weekly. A solution of 17α-AED, 17-β-AED as well as a mixture of both in equal parts of DMSO and ethanol diluted in culture medium, not allowing the concentration of DMSO in culture-flasks to exceed 0.15%, was added respectively.
(§16) The concentration of AED in each culture flask was 100 nM. Controls were exposed to the same concentration of DMSO and ethanol in culture medium.
as §9
(§17) Trypan Blue Exclusion Trial 100 μL aliquots of the initial cell suspension in PBS were used to determine the viability of cells collected by means of the trypan blue exclusion assay. 10 μL of the cell suspensions were mixed with 10 μL trypan blue solution (Sigma Chemical Co. # T8154) and left to sit for 3 minutes. The numbers of viable and dead cells were counted in a hemocytometer.

PC-3 [4] = test: as above; assay type: cell-based, human; conditions: 96 hours; for PC-3 mean % viable / PC-3 mean Dead cells / PC-3 mean Tot. cells / PC-3 mean Viable cells: 100 nM; for PC-3 mean Dead cells / PC-3 mean Tot. cells / PC-3 mean Viable cells: mean (range); for increase in total number of cells compared to controls / proportion of viable cells: PC-3, 100 nM
Procedure: as §13, §14, §15, §16, §9, §17

PC-3 [5] = test: Caspase-3 apoptosis assay (Ac-DEVD-AMC fluorescence); assay type: cell-based, human; conditions: 96 hours; for Mean fluorescence PC-3 samples/100 cells n = 3: corrected for cell number; for Caspase 3-mediated fluorescence compared to untreated controls: PC-3, 100 nM, not corrected for cell numbers
Procedure: as §9, §10, §11, §12

SMILES	COX-2 expression, optical density (COX-2)	PPARγ expression, optical density (PPARγ)	Mean fluorescence DU-145 samples/100 cells n = 3 (DU-145 [1])	Mean fluorescence DU-145 samples n = 3 (DU-145 [1])	expression of cyclin D1 (cyclin D1)	tumour volumes [2] [%]	DU-145 mean % viable (DU-145 [3]) [%]	DU-145 mean Dead cells (DU-145 [3])	DU-145 mean Tot. cells (DU-145 [3])	DU-145 mean Viable cells (DU-145 [3])	PC-3 mean % viable (PC-3 [4]) [%]	PC-3 mean Dead cells (PC-3 [4])	PC-3 mean Tot. cells (PC-3 [4])	PC-3 mean Viable cells (PC-3 [4])	increase in total number of cells compared to controls (PC-3 [4]) [%]	proportion of viable cells (PC-3 [4])	Mean fluorescence PC-3 samples/100 cells n = 3 (PC-3 [5]; 100 nM, mean (range))	Caspase 3-mediated fluorescence compared to untreated controls (PC-3 [5])	further results
C[C@]12CC[C@H]3[C@@H](CC=C4C[C@@H](O)CC[C@@]43C)[C@@H]1CC[C@@H]2O [Compound 17β-AED, reference compound]	135(133-137)	47(40-53)	35.1(25.6-50.3)	42.9(32.0-58.8)	did not reduce	~200	72.1	35(31-42)	125(109-149)	90(78-107)	73.7	17(16-18)	66(63-71)	49(46-53)	29	small decrease in proportion of viable cells	45.5(24.5-75.2)	approximately a doubling of fluorescence	staining for VEGF (VEGF; Animals II): strong staining for VEGF; antitumoural effect / tumour growth ([2]; original experiment (Animals I)): growth-stimulatory effect; Mean fluorescence PC-3 samples n = 3 (PC-3 [5]; 100 nM, mean (range)): 29.6(17.4-48.1)
C[C@]12CC[C@H]3[C@@H](CC=C4C[C@@H](O)CC[C@@]43C)[C@@H]1CC[C@H]2O [Compound 17α-AED, androstene-3β,17α-diol]	219(192-234)	190(176-210)	14.2((10.9-20.3)	18.4(13.2-25.2)	marked decrease	~150	78.1	29(21-37)	131(122-148)	102(95-111)	71.6	23(16-32)	81(64-98)	58(49-77)	59	small decrease in proportion of viable cells	19.5(15.7-25.9)	essentially unaltered intensity	expression of VEGF (immunostaining) (VEGF; Animals I, 3/4 samples): very weak; caspase-3 or caspase-7 fluorescence compared to 17β-AED or controls (DU-145 [1]; DU-145, 100 nM): significant decline; total number of cells (DU-145 [3]; DU-145, 100 nM): significant decrease in total number of cells

— US20050192262A1, “Treatment of tumours” (priority 2001, published 2005)
